# Laboratory results: doi:10.1101/2024.08.19.608619, “Discovery of potent SARS-CoV-2 nsp3 macrodomain inhibitors uncovers lack of translation to cellular antiviral response” (bioRxiv, 2024)
# pEC50: −log10 of the molar value. “And” between values parts separate entries of the source, which are not always exact repeats. Equal entries are not always repeated.
# Test system: not listed separately
# Assay: Hepatic microsomal stability, MLM
# Type: in vitro ADME
# Settings: In vitro mouse liver microsomal stability
Structure (SMILES),clint [µL/min/mg],perc_remaining [%],t_half [min]
"CC(C)[C@@H](Nc1ncnc2[nH]ccc12)c1ccc2c(c1)S(=O)(=O)CCC2 (single isomer, unassigned) [ASAP-0008676]",55.0,41.0,30.4
"CC(C)[C@H](Nc1ncnc2[nH]c(-c3cnn(C)c3C#N)cc12)c1ccc2c(c1)S(=O)(=O)CCC2 (single isomer, unassigned) [ASAP-0011144]",311.0,1.0,5.4

# Same assay, conditions: In vitro mouse liver microsomal stability, no cofactor
row,Structure (SMILES),perc_remaining_no_cofactor [%]
1,"CC(C)[C@@H](Nc1ncnc2[nH]ccc12)c1ccc2c(c1)S(=O)(=O)CCC2 (single isomer, unassigned) [ASAP-0008676]",117.0
2,"CC(C)[C@H](Nc1ncnc2[nH]c(-c3cnn(C)c3C#N)cc12)c1ccc2c(c1)S(=O)(=O)CCC2 (single isomer, unassigned) [ASAP-0011144]",90.0

# Test system: not listed separately
# Assay: In vitro kinetic solubility
# Settings: In vitro kinetic solubility, ph 7.4
row,Structure (SMILES),solubility_mean [µM]
1,"CC(C)[C@@H](Nc1ncnc2[nH]ccc12)c1ccc2c(c1)S(=O)(=O)CCC2 (single isomer, unassigned) [ASAP-0008676]",386
2,"CC(C)[C@H](Nc1ncnc2[nH]c(-c3cnn(C)c3C#N)cc12)c1ccc2c(c1)S(=O)(=O)CCC2 (single isomer, unassigned) [ASAP-0011144]",22

# Test system: not listed separately
# Assay: LogD
# Settings: pH 7.4; In vitro LogD
row,Structure (SMILES),logd
1,"CC(C)[C@@H](Nc1ncnc2[nH]ccc12)c1ccc2c(c1)S(=O)(=O)CCC2 (single isomer, unassigned) [ASAP-0008676]",2.5
2,"CC(C)[C@H](Nc1ncnc2[nH]c(-c3cnn(C)c3C#N)cc12)c1ccc2c(c1)S(=O)(=O)CCC2 (single isomer, unassigned) [ASAP-0011144]",3.3

# Test system: not listed separately
# Assay: Permeability Papp (AB) MDR1/MDCKII
# Settings: In vitro MDR1-MDCKII permeability, A to B, mean
row,Structure (SMILES),papp_a_to_b_mean [×10⁻⁶ cm/s]
1,"CC(C)[C@H](Nc1ncnc2[nH]c(-c3cnn(C)c3C#N)cc12)c1ccc2c(c1)S(=O)(=O)CCC2 (single isomer, unassigned) [ASAP-0011144]",4.33

# Same assay, conditions: In vitro MDR1-MDCKII permeability, A to B, no inhibitor
row,Structure (SMILES),papp_a_to_b_mean
1,"CC(C)[C@H](Nc1ncnc2[nH]c(-c3cnn(C)c3C#N)cc12)c1ccc2c(c1)S(=O)(=O)CCC2 (single isomer, unassigned) [ASAP-0011144]",0.109 ×10⁻⁶ cm/s and 0.101 ×10⁻⁶ cm/s

# Same assay, conditions: In vitro MDR1-MDCKII permeability, B to A, no inhibitor
row,Structure (SMILES),papp_b_to_a_mean
1,"CC(C)[C@@H](Nc1ncnc2[nH]ccc12)c1ccc2c(c1)S(=O)(=O)CCC2 (single isomer, unassigned) [ASAP-0008676]",7.1 ×10⁻⁶ cm/s and 4.9 ×10⁻⁶ cm/s
2,"CC(C)[C@H](Nc1ncnc2[nH]c(-c3cnn(C)c3C#N)cc12)c1ccc2c(c1)S(=O)(=O)CCC2 (single isomer, unassigned) [ASAP-0011144]",6.0 ×10⁻⁶ cm/s and 7.2 ×10⁻⁶ cm/s

# Same assay, conditions: In vitro MDR1-MDCKII permeability, no inhibitor
row,Structure (SMILES),efflux_ratio
1,"CC(C)[C@@H](Nc1ncnc2[nH]ccc12)c1ccc2c(c1)S(=O)(=O)CCC2 (single isomer, unassigned) [ASAP-0008676]",47.7 and 54.4
2,"CC(C)[C@H](Nc1ncnc2[nH]c(-c3cnn(C)c3C#N)cc12)c1ccc2c(c1)S(=O)(=O)CCC2 (single isomer, unassigned) [ASAP-0011144]",54.9 and 71.8

# Same assay, conditions: In vitro MDR1-MDCKII permeability, recovery A to B, mean
row,Structure (SMILES),perc_recovery_a_to_b_mean [%]
1,"CC(C)[C@H](Nc1ncnc2[nH]c(-c3cnn(C)c3C#N)cc12)c1ccc2c(c1)S(=O)(=O)CCC2 (single isomer, unassigned) [ASAP-0011144]",71.4

# Same assay, conditions: In vitro MDR1-MDCKII permeability, recovery A to B, no inhibitor
row,Structure (SMILES),perc_recovery_a_to_b_mean
1,"CC(C)[C@@H](Nc1ncnc2[nH]ccc12)c1ccc2c(c1)S(=O)(=O)CCC2 (single isomer, unassigned) [ASAP-0008676]",75.4% and 74.2% and 91.3%
2,"CC(C)[C@H](Nc1ncnc2[nH]c(-c3cnn(C)c3C#N)cc12)c1ccc2c(c1)S(=O)(=O)CCC2 (single isomer, unassigned) [ASAP-0011144]",95.4% and 83.3%

# Same assay, conditions: In vitro MDR1-MDCKII permeability, recovery B to A, no inhibitor
row,Structure (SMILES),perc_recovery_b_to_a_mean
1,"CC(C)[C@@H](Nc1ncnc2[nH]ccc12)c1ccc2c(c1)S(=O)(=O)CCC2 (single isomer, unassigned) [ASAP-0008676]",80.0% and 74.5%
2,"CC(C)[C@H](Nc1ncnc2[nH]c(-c3cnn(C)c3C#N)cc12)c1ccc2c(c1)S(=O)(=O)CCC2 (single isomer, unassigned) [ASAP-0011144]",82.4% and 102.0%

# Same assay, conditions: MDR1-MDCKII, recovery A to B, with inhibitor Cyclosporin A
row,Structure (SMILES),perc_recovery_a_to_b_inhibitor_mean [%]
1,"CC(C)[C@@H](Nc1ncnc2[nH]ccc12)c1ccc2c(c1)S(=O)(=O)CCC2 (single isomer, unassigned) [ASAP-0008676]",72.2
2,"CC(C)[C@H](Nc1ncnc2[nH]c(-c3cnn(C)c3C#N)cc12)c1ccc2c(c1)S(=O)(=O)CCC2 (single isomer, unassigned) [ASAP-0011144]",78.3

# Same assay, conditions: MDR1-MDCKII, recovery A to B, with inhibitor Verapamil
row,Structure (SMILES),perc_recovery_a_to_b_inhibitor_mean [%]
1,"CC(C)[C@@H](Nc1ncnc2[nH]ccc12)c1ccc2c(c1)S(=O)(=O)CCC2 (single isomer, unassigned) [ASAP-0008676]",82.4
2,"CC(C)[C@H](Nc1ncnc2[nH]c(-c3cnn(C)c3C#N)cc12)c1ccc2c(c1)S(=O)(=O)CCC2 (single isomer, unassigned) [ASAP-0011144]",84.6

# Same assay, conditions: MDR1-MDCKII, recovery B to A, with inhibitor Cyclosporin A
row,Structure (SMILES),perc_recovery_b_to_a_inhibitor_mean [%]
1,"CC(C)[C@@H](Nc1ncnc2[nH]ccc12)c1ccc2c(c1)S(=O)(=O)CCC2 (single isomer, unassigned) [ASAP-0008676]",63.3
2,"CC(C)[C@H](Nc1ncnc2[nH]c(-c3cnn(C)c3C#N)cc12)c1ccc2c(c1)S(=O)(=O)CCC2 (single isomer, unassigned) [ASAP-0011144]",76.3

# Same assay, conditions: MDR1-MDCKII, recovery B to A, with inhibitor Verapamil
row,Structure (SMILES),perc_recovery_b_to_a_inhibitor_mean [%]
1,"CC(C)[C@@H](Nc1ncnc2[nH]ccc12)c1ccc2c(c1)S(=O)(=O)CCC2 (single isomer, unassigned) [ASAP-0008676]",89.1
2,"CC(C)[C@H](Nc1ncnc2[nH]c(-c3cnn(C)c3C#N)cc12)c1ccc2c(c1)S(=O)(=O)CCC2 (single isomer, unassigned) [ASAP-0011144]",95.9

# Test system: not listed separately
# Assay: Hepatic microsomal stability, HLM
# Type: in vitro ADME, human
# Settings: In vitro human liver microsomal stability
Structure (SMILES),clint [µL/min/mg],perc_remaining [%],t_half [min]
"CC(C)[C@@H](Nc1ncnc2[nH]ccc12)c1ccc2c(c1)S(=O)(=O)CCC2 (single isomer, unassigned) [ASAP-0008676]",21.0,69.0,78.6
"CC(C)[C@H](Nc1ncnc2[nH]c(-c3cnn(C)c3C#N)cc12)c1ccc2c(c1)S(=O)(=O)CCC2 (single isomer, unassigned) [ASAP-0011144]",935.0,0.0,1.8

# Same assay, conditions: In vitro human liver microsomal stability; no cofactor
row,Structure (SMILES),perc_remaining_no_cofactor [%]
1,"CC(C)[C@@H](Nc1ncnc2[nH]ccc12)c1ccc2c(c1)S(=O)(=O)CCC2 (single isomer, unassigned) [ASAP-0008676]",99.0
2,"CC(C)[C@H](Nc1ncnc2[nH]c(-c3cnn(C)c3C#N)cc12)c1ccc2c(c1)S(=O)(=O)CCC2 (single isomer, unassigned) [ASAP-0011144]",101.0

# Test system: SARS-CoV-2, isolate USA-WA1/2020
# Assay: microbe, parasite or virus in culture
# Type: cell-based
# Settings: HeLa-ACE2 SARS-CoV-2 antiviral effect without P-gp inhibitor; maximum measured response of dose series
row,Structure (SMILES),perc_max_measured [%]
1,"CC(C)[C@@H](Nc1ncnc2[nH]ccc12)c1ccc2c(c1)S(=O)(=O)CCC2 (single isomer, unassigned) [ASAP-0008676]",117.108
2,"CC(C)[C@H](Nc1ncnc2[nH]c(-c3cnn(C)c3C#N)cc12)c1ccc2c(c1)S(=O)(=O)CCC2 (single isomer, unassigned) [ASAP-0011144]",129.006

# Same assay, conditions: HeLa-ACE2 SARS-CoV-2 antiviral effect without P-gp inhibitor; minimum measured response of dose series
row,Structure (SMILES),perc_min_measured [%]
1,"CC(C)[C@@H](Nc1ncnc2[nH]ccc12)c1ccc2c(c1)S(=O)(=O)CCC2 (single isomer, unassigned) [ASAP-0008676]",66.698
2,"CC(C)[C@H](Nc1ncnc2[nH]c(-c3cnn(C)c3C#N)cc12)c1ccc2c(c1)S(=O)(=O)CCC2 (single isomer, unassigned) [ASAP-0011144]",5.734

# Same assay, conditions: HeLa-ACE2 SARS-CoV-2 antiviral effect without P-gp inhibitor; read-out: ec50
row,Structure (SMILES),pEC50
1,"CC(C)[C@@H](Nc1ncnc2[nH]ccc12)c1ccc2c(c1)S(=O)(=O)CCC2 (single isomer, unassigned) [ASAP-0008676]",< 4.70
2,"CC(C)[C@H](Nc1ncnc2[nH]c(-c3cnn(C)c3C#N)cc12)c1ccc2c(c1)S(=O)(=O)CCC2 (single isomer, unassigned) [ASAP-0011144]",5.21

# Same assay, conditions: HeLa-ACE2 SARS-CoV-2 antiviral effect without P-gp inhibitor; read-out: ec90
row,Structure (SMILES),EC90 [µM]
1,"CC(C)[C@@H](Nc1ncnc2[nH]ccc12)c1ccc2c(c1)S(=O)(=O)CCC2 (single isomer, unassigned) [ASAP-0008676]",> 20
2,"CC(C)[C@H](Nc1ncnc2[nH]c(-c3cnn(C)c3C#N)cc12)c1ccc2c(c1)S(=O)(=O)CCC2 (single isomer, unassigned) [ASAP-0011144]",7.19

# Test system: not listed separately
# Assay: in vitro
# Settings: human, hela-ace2 cells, 50.0
row,Structure (SMILES),CC50 at 24 h [µM]
1,"CC(C)[C@@H](Nc1ncnc2[nH]ccc12)c1ccc2c(c1)S(=O)(=O)CCC2 (single isomer, unassigned) [ASAP-0008676]",> 20
2,"CC(C)[C@H](Nc1ncnc2[nH]c(-c3cnn(C)c3C#N)cc12)c1ccc2c(c1)S(=O)(=O)CCC2 (single isomer, unassigned) [ASAP-0011144]",> 20

# Test system: HeLa-ACE2 cells
# Assay: not given
# Settings: HeLa-ACE2 cytotoxicity
Structure (SMILES),CC50 [µM],cc10 [µM]
"CC(C)[C@@H](Nc1ncnc2[nH]ccc12)c1ccc2c(c1)S(=O)(=O)CCC2 (single isomer, unassigned) [ASAP-0008676]",> 20,> 20.0
"CC(C)[C@H](Nc1ncnc2[nH]c(-c3cnn(C)c3C#N)cc12)c1ccc2c(c1)S(=O)(=O)CCC2 (single isomer, unassigned) [ASAP-0011144]",> 20,> 20.0

# Same assay, conditions: HeLa-ACE2 cytotoxicity; highest measured response of the dose series
row,Structure (SMILES),perc_max_measured [%]
1,"CC(C)[C@@H](Nc1ncnc2[nH]ccc12)c1ccc2c(c1)S(=O)(=O)CCC2 (single isomer, unassigned) [ASAP-0008676]",101.14
2,"CC(C)[C@H](Nc1ncnc2[nH]c(-c3cnn(C)c3C#N)cc12)c1ccc2c(c1)S(=O)(=O)CCC2 (single isomer, unassigned) [ASAP-0011144]",100.779

# Same assay, conditions: HeLa-ACE2 cytotoxicity; lowest measured response of the dose series
row,Structure (SMILES),perc_min_measured [%]
1,"CC(C)[C@@H](Nc1ncnc2[nH]ccc12)c1ccc2c(c1)S(=O)(=O)CCC2 (single isomer, unassigned) [ASAP-0008676]",87.391
2,"CC(C)[C@H](Nc1ncnc2[nH]c(-c3cnn(C)c3C#N)cc12)c1ccc2c(c1)S(=O)(=O)CCC2 (single isomer, unassigned) [ASAP-0011144]",87.504
